Assay results as given in patent publication US10189809B2, “SGC stimulators” (Ironwood Pharmaceuticals, Inc., priority 2010, dated 2019).
Like-named read-outs stand apart in the source and are kept apart here.

Experiments:
[1] = molecular target: soluble guanylate cyclase (sGC) (Homo sapiens (Human), UniProt Q02108+Q02153); assay: sGC-HEK-cGMP assay run with SNP incubation (HEK WC assay); format: cell-based
In short: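 HEK293 cells with endogenous sGC were pretreated with 0.5 mM IBMX for 15 min at 37 °C, then exposed to test compound plus sodium nitroprusside for 10 min at 37 °C.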

[2] = molecular target: T1, Human soluble guanylate cyclase enzyme (hsGC) (Homo sapiens (Human), UniProt Q02108+Q02153); assay: Purified human sGC enzyme activity assay; format: biochemical; conditions: for sGC Enzyme (specific activity at 30 μM) / sGC Enzyme (fold increase at 30 μM without SNP) / sGC Enzyme (fold increase at 30 μM): 30 μM compound
In short: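 Purified human sGC (5 ng) incubated 30 min at 37° C with compound at 10 or 30 μM final in pH 8.0 Tris with 300 μM GTP, 2 mM MgCl2, 2 mM DTT and 1 mM IBMX, then stopped with cold methanol. cGMP quantified against a standard curve. Specific activity (nmol cGMP/mg sGC/min) expressed as fold-change over DMSO control.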

[3] = molecular target: T1, Human soluble guanylate cyclase enzyme (hsGC); assay: Purified human sGC enzyme synergy assay in the presence of 1 μM sodium nitroprusside (SNP); format: biochemical; conditions: for sGC Enzyme (fold increase at 10 μM with SNP): 10 μM compound; for sGC Enzyme (fold increase at 30 μM with SNP): 30 μM compound
Procedure: Human soluble guanylate cyclase enzyme (hsGC) obtained from Enzo Inc. (P/N: ALX-201-177) was used to evaluate the activity of test compounds. The assay reactions contained 0.1 M Tris (pH 8.0), 0.5 mg/mL BSA (pH 8.0), 2 mM DTT, 2 mM MgCl2, 300 μM GTP, 1 mM 3-isobutyl-1-methylxanthine (IBMX) and 5 ng human soluble guanylate cyclase enzyme. Test compounds in DMSO were then added (2 μL, 10 or 30 μM final concentration) and incubated (200 μL, 96-well plate format) at 37° C. for 30 minutes. The controls were carried out using 2 μL DMSO. After the 30 minute incubation, the reaction was stopped with the addition of 200 μL of cold methanol. The plate was then centrifuged at 3,200 rpm for 10 minutes at room temperature. Supernatants (200 μL) were collected and transferred to a new 96 well plate for analysis.
An 8 point cGMP (Sigma-Aldrich P/N: G6129) standard curve was prepared in assay buffer ranging from 0.156-20 μM. Samples for the cGMP standard curve were then diluted with an equal volume of methanol resulting in final cGMP concentrations of 0.078-10 μM.
The cGMP standard curve was generated using GraphPad Prism Software.
Calculations: Specific Activity was determined by the amount of cGMP formed (nmoles) per mg of sGC per min. Enzyme “fold-change” was calculated by dividing Specific Activity for test compounds by Specific Activity of DMSO controls.
Enzyme assays were performed as described above, but was done in the presence of 1 μM sodium nitroprusside (SNP).

[4] = read-out: HEK WC Assay (% Emax at 10 uM/with 10 uM SNP)
[5] = read-out: HEK WC Assay (% Emax at 30 uM/with 10 uM SNP)
[6] = read-out: HEK WC Assay (% Emax at 10 μM/with 10 uM SNP)
[7] = read-out: HEK WC Assay (% Emax at 30 μM/with 10 uM SNP)

Chain of soluble guanylate cyclase (sGC) (Q02153 whole entry): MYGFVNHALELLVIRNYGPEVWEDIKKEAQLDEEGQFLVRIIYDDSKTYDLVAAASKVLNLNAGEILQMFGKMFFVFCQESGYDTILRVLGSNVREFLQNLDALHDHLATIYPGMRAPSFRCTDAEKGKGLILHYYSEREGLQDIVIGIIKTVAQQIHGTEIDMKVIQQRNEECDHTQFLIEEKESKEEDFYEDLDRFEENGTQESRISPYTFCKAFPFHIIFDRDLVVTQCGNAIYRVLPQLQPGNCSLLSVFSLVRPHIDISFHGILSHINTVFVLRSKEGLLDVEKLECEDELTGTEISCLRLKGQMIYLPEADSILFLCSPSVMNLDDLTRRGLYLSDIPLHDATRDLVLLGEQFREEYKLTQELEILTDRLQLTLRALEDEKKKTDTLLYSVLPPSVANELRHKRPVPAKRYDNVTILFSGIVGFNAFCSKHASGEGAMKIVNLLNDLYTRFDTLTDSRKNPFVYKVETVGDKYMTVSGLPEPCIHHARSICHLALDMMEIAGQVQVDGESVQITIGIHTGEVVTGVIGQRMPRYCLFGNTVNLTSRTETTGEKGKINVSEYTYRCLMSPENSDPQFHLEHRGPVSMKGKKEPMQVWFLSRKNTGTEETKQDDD
Chain of soluble guanylate cyclase (sGC) (Q02108 whole entry): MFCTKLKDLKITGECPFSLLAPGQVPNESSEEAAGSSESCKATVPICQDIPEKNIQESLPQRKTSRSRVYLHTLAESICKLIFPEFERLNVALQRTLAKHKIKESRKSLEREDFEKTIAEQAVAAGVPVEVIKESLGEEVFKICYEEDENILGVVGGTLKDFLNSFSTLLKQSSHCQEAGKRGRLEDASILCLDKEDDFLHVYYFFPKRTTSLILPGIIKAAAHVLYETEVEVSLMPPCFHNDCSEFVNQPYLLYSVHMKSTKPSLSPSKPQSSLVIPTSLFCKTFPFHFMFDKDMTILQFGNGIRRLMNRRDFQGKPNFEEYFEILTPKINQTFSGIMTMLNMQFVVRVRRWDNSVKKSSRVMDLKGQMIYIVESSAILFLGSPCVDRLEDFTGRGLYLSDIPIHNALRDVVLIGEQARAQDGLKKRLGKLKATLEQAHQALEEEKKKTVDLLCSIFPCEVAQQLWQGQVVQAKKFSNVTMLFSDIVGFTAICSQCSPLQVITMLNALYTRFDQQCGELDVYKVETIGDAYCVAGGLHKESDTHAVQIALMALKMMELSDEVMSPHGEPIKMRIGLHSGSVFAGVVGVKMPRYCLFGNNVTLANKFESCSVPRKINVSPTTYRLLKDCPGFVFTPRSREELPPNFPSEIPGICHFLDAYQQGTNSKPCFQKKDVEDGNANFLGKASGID
T1 sequence (Q02153 whole entry): as the sequence (Q02153 whole entry) above
T1 sequence (Q02108 whole entry): as the sequence (Q02108 whole entry) above

| Compound | Emax at 10 µM [1, 4] [%] | Emax at 30 µM [1, 5] [%] | sGC Enzyme (specific activity at 10 μM) ([2]; 10 μM compound) | sGC Enzyme (fold increase at 10 μM without SNP) ([2]; 10 μM compound) | sGC Enzyme (specific activity at 30 μM) [2] | sGC Enzyme (fold increase at 30 μM without SNP) [2] | sGC Enzyme (fold increase at 10 μM with SNP) ([3]; with 1 μM SNP) | sGC Enzyme (fold increase at 30 μM with SNP) ([3]; with 1 μM SNP) | Emax at 10 µM [1, 6] [%] | Emax at 30 µM [1, 7] [%] | sGC Enzyme (fold increase at 10 μM) ([2]; 10 μM compound, without the addition of SNP) | sGC Enzyme (fold increase at 30 μM) ([2]; without the addition of SNP) | sGC Enzyme (fold increase at 10 μM with SNP) ([3]; with the addition of SNP) | sGC Enzyme (fold increase at 30 μM with SNP) ([3]; with the addition of SNP) |
| --- | --- | --- | --- | --- | --- | --- | --- | --- | --- | --- | --- | --- | --- | --- |
| Cc1nnc(-c2cc(-c3ccccn3)nn2Cc2ccccc2F)o1 [Compound I-46] | 0 to 10 | 0 to 10 | C (C = 100 to <200) | A (A = no increase to <2 fold increase) | D (D = 200 to <500) | A (A = no increase to <2 fold increase) | A (A = no increase to <2 fold increase) | A (A = no increase to <2 fold increase) | – | – | – | – | – | – |
| Oc1cccc(-c2cc(-c3ccccn3)nn2Cc2ccccc2F)n1 [Compound I-79, 6-(1-(2-fluorobenzyl)-3-(pyridin-2-yl)-1H-pyrazol-5-yl)pyridin-2-ol] | – | – | – | – | – | – | – | – | 0 to 10 | 0 to 10 | A (A = no increase to <2 fold increase) | A (A = no increase to <2 fold increase) | A (A = no increase to <2 fold increase) | A (A = no increase to <2 fold increase) |
| Cc1ccc(-c2cc(-c3ccccn3)nn2Cc2ccccc2F)cc1 [Compound I-23] | 0 to 10 | 0 to 10 | C (C = 100 to <200) | B (B = 2 to <5 fold increase) | D (D = 200 to <500) | B (B = 2 to <5 fold increase) | B (B = 2 to <5 fold increase) | B (B = 2 to <5 fold increase) | – | – | – | – | – | – |
| CC(C)(O)c1cnc(-c2cc(-c3ccon3)n(Cc3ccccc3F)n2)nc1O [Compound I-133] | – | – | – | – | – | – | – | – | 20 to 40 | 40 to 60 | – | A (A = no increase to <2 fold increase) | – | B (B = 2 to <5 fold increase) |
| Cc1cc(N)nc(-c2cc(-c3ccon3)n(Cc3ccccc3F)n2)n1 [Compound I-111] | – | – | – | – | – | – | – | – | 60 to 80 | 40 to 60 | – | B (B = 2 to <5 fold increase) | – | C (C = 5 to <10 fold increase) |
| CC(C)(C)c1cnc(-c2cc(-c3ccon3)n(Cc3ccccc3F)n2)nc1N [Compound I-114] | – | – | – | – | – | – | – | – | 40 to 60 | 40 to 60 | – | B (B = 2 to <5 fold increase) | – | D (D = 10 to <30 fold increase) |
| Fc1ccccc1Cn1nc(-c2ccccn2)cc1-c1ccc(Br)cn1 [Compound I-51, 5-bromo-2-(1-(2-fluorobenzyl)-3-(pyridin-2-yl)-1H-pyrazol-5-yl)pyridine] | 0 to 10 | 0 to 10 | – | A (A = no increase to <2 fold increase) | – | A (A = no increase to <2 fold increase) | A (A = no increase to <2 fold increase) | A (A = no increase to <2 fold increase) | – | – | – | – | – | – |
| Fc1ccccc1Cn1nc(-c2ccccn2)c(Br)c1-c1ccccn1 [Compound I-62] | 0 to 10 | 0 to 10 | B (B = 50 to <100) | A (A = no increase to <2 fold increase) | B (B = 50 to <100) | A (A = no increase to <2 fold increase) | A (A = no increase to <2 fold increase) | A (A = no increase to <2 fold increase) | – | – | – | – | – | – |
| COc1ccc(-c2cc(-c3ncccn3)nn2Cc2ccccc2F)cc1 [Compound I-60] | 0 to 10 | 0 to 10 | B (B = 50 to <100) | A (A = no increase to <2 fold increase) | C (C = 100 to <200) | B (B = 2 to <5 fold increase) | A (A = no increase to <2 fold increase) | A (A = no increase to <2 fold increase) | – | – | – | – | – | – |
| Fc1ccccc1Cn1nc(-c2ccccn2)cc1C1CCCCC1 [Compound I-48] | 0 to 10 | 0 to 10 | D (D = 200 to <500) | B (B = 2 to <5 fold increase) | E (E = 500 to <1000) | B (B = 2 to <5 fold increase) | B (B = 2 to <5 fold increase) | C (C = 5 to <10 fold increase) | – | – | – | – | – | – |
| Cl.Nc1cnc(-c2cc(-c3ccon3)n(Cc3ccccc3F)n2)nc1N [Compound I-107, 2-(1-(2-fluorobenzyl)-5-(isoxazol-3-yl)-1H-pyrazol-3-yl)pyrimidine-4,5-diamine hydrochloride] | – | – | – | – | – | – | – | – | 60 to 80 | 0 to 10 | – | B (B = 2 to <5 fold increase) | – | C (C = 5 to <10 fold increase) |
| Fc1ccccc1Cn1nc(-c2ncccn2)cc1-c1ccccc1F [Compound I-59] | 0 to 10 | 0 to 10 | B (B = 50 to <100) | B (B = 2 to <5 fold increase) | C (C = 100 to <200) | B (B = 2 to <5 fold increase) | B (B = 2 to <5 fold increase) | C (C = 5 to <10 fold increase) | – | – | – | – | – | – |
| CC(C)c1cc(-c2ccccn2)nn1Cc1ccccc1F [Compound I-47] | 0 to 10 | 0 to 10 | D (D = 200 to <500) | A (A = no increase to <2 fold increase) | D (D = 200 to <500) | B (B = 2 to <5 fold increase) | B (B = 2 to <5 fold increase) | B (B = 2 to <5 fold increase) | – | – | – | – | – | – |
| Fc1ccccc1Cn1nc(-c2ccc(Br)cn2)cc1-c1ccccn1 [Compound I-52, 5-bromo-2-(1-(2-fluorobenzyl)-5-(pyridin-2-yl)-1H-pyrazol-3-yl)pyridine] | 0 to 10 | 0 to 10 | – | A (A = no increase to <2 fold increase) | – | A (A = no increase to <2 fold increase) | A (A = no increase to <2 fold increase) | A (A = no increase to <2 fold increase) | – | – | – | – | – | – |
| Nc1nc(-c2cc(-c3ccon3)n(Cc3ccccc3F)n2)ncc1-c1ccccn1 [Compound I-128] | – | – | – | – | – | – | – | – | 60 to 80 | 40 to 60 | – | B (B = 2 to <5 fold increase) | – | C (C = 5 to <10 fold increase) |
